# “Also recorded” adds a separate entry of the source. Read-outs that look alike come from different tables or passages of the source.
# Legend:
# [1] = Stability of aqueous hCT solutions against fibrillation or precipitation (solution remains clear on storage); conditions: for solution is stable for: Example 1 repeated (5 mg/ml hCT) with acetic acid replaced by the named acid; for ability of an acid to produce a stable solution of hCT (solution remains clear): storing for 24 hours at 25°C
# Description: The ability of an acid to produce a stable solution can be readily determined by making up a solution and storing it for 24 hours at 25°C.
# Example 1 is repeated except that the solutions also contain 0.5% hydroxypropylmethylcellulose.
# [2] = Extrapolated time of fibrillation (ln/ln plot of fibrillation time against hCT concentration); conditions: at 4°C; solutions with 5-9 mg/ml hCT in 0.001% acetic acid; from measurements up to 100 mg/ml hCT using the ln/ln plot
# [3] = Stability of aqueous hCT solutions against fibrillation or precipitation (solution remains clear on storage); type: physicochemical; conditions: 5 mg/ml hCT; acetic acid 0.0001%, 0.001%, 0.01%, 0.1% and 1.0%; after 8 months
# [4] = additive mixed with the hCT solution after preparation
Molecule,solution is stable for [1],ability of an acid to produce a stable solution of hCT (solution remains clear) [1],also measured
O=C(O)CC(O)(CC(=O)O)C(=O)O [citric acid],over 4 days,form stable solutions,–
Cl [hydrochloric acid],over 4 days,form stable solutions,–
benzalkonium chloride,–,–,"effect of additive on the stability of the hCT solution [1, 4]: do not diminish the stability"
O=C(O)C(O)C(O)C(=O)O (racemic) [DL-tartaric acid],over 4 days,form stable solutions,–
OC[C@H]1O[C@H](O[C@H]2O[C@H](CO)[C@@H](O)[C@H](O)[C@H]2O)[C@H](O)[C@@H](O)[C@@H]1O [trehalose],–,–,effect of additive on the stability of the hCT solution [1]: do not diminish the stability
Oc1ccccc1 [phenol],–,form stable solutions,–
O=C(O)CCCC(=O)O [glutaric acid],over 4 days,form stable solutions,–
CC[C@H](C)[C@H](NC(=O)[C@H](C)NC(=O)[C@@H](NC(=O)[C@H](CCC(N)=O)NC(=O)[C@@H]1CCCN1C(=O)[C@H](Cc1ccccc1)NC(=O)[C@@H](NC(=O)[C@H](Cc1c[nH]cn1)NC(=O)[C@H](Cc1ccccc1)NC(=O)[C@H](CCCCN)NC(=O)[C@H](CC(N)=O)NC(=O)[C@H](Cc1ccccc1)NC(=O)[C@H](CC(=O)O)NC(=O)[C@H](CCC(N)=O)NC(=O)[C@@H](NC(=O)[C@H](Cc1ccc(O)cc1)NC(=O)[C@@H](NC(=O)CNC(=O)[C@H](CC(C)C)NC(=O)[C@H](CCSC)NC(=O)[C@@H]1CSSC[C@H](N)C(=O)NCC(=O)N[C@@H](CC(N)=O)C(=O)N[C@@H](CC(C)C)C(=O)N[C@@H](CO)C(=O)N[C@@H]([C@@H](C)O)C(=O)N1)[C@@H](C)O)[C@@H](C)O)[C@@H](C)O)[C@@H](C)O)C(=O)NCC(=O)N[C@H](C(=O)NCC(=O)N[C@@H](C)C(=O)N1CCC[C@H]1C(N)=O)C(C)C [hCT],–,–,stability predicted [2]: more than 5 years; stability of solution [3]: stable and perfectly clear
O=CO [formic acid],over 4 days,form stable solutions,–
N[C@@H](CC(=O)O)C(=O)O [aspartic acid],–,do not form stable solutions,–
N[C@@H](CCC(=O)O)C(=O)O [L-glutamic acid],over 4 days,–,–
OC[C@H]1O[C@@](CO)(O[C@H]2O[C@H](CO)[C@@H](O)[C@H](O)[C@H]2O)[C@@H](O)[C@@H]1O [sucrose],–,–,effect of additive on the stability of the hCT solution [1]: do not diminish the stability
O=C(O)CN(CCN(CC(=O)O)CC(=O)O)CC(=O)O [ethylene - diamine tetraacetic acid],–,form stable solutions,–
CC(C)(C)CC(C)(C)c1ccc(OCCOCC[N+](C)(C)Cc2ccccc2)cc1 [benzethonium chloride],–,–,"effect of additive on the stability of the hCT solution [1, 4]: do not diminish the stability; also recorded: improve the stability"
CCO [ethanol],–,–,effect of additive on the stability of the hCT solution [1]: do not diminish the stability
O=C(O)C(O)C(O)C(=O)O [L-α-tartaric acid],over 4 days,form stable solutions,–
O=C(O)CCCCC(=O)O [adipic acid],over 4 days,form stable solutions,–
[H]/N=C(\N/C(=N/[H])NCCCCCCNC(=N)NC(=N)Nc1ccc(Cl)cc1)Nc1ccc(Cl)cc1 [chlorhexidine diacetate],–,–,effect of additive on the stability of the hCT solution [1]: do not diminish the stability
N[C@H](CCC(=O)O)C(=O)O [D-glutamic acid],–,do not form stable solutions,–
OC[C@@H](O)[C@@H](O)[C@H](O)[C@H](O)CO [mannitol],–,–,effect of additive on the stability of the hCT solution [1]: do not diminish the stability
OC[C@H]1O[C@@H](O[C@H]2[C@H](O)[C@@H](O)C(O)O[C@@H]2CO)[C@H](O)[C@@H](O)[C@H]1O (stereo partly shown) [lactose],–,–,effect of additive on the stability of the hCT solution [1]: do not diminish the stability
O=C1O[C@H]([C@@H](O)CO)C(O)=C1O [ascorbic acid],over 4 days,form stable solutions,–

# Second part, led by results:
solution is stable for [1],ability of an acid to produce a stable solution of hCT (solution remains clear) [1],Molecule,also measured
over 4 days,–,O=C(O)CCC(=O)O [succinic acid],–
–,do not form stable solutions,O=C(O)/C=C\C(=O)O [maleic acid],–
–,do not form stable solutions,sulphuric acid,–
–,do not form stable solutions,O=C(O)[C@H](O)[C@@H](O)[C@H](O)[C@H](O)CO [gluconic acid],–
over 4 days,form stable solutions,O=C(O)CC(=O)O [malonic acid],–

# — patent EP0490549B1, “Stabilisation of pharmaceutical compositions comprising calcitonin” (CIBA-GEIGY AG, priority 1990, dated 1995)
